US20200283384A1, “ANTIBACTERIAL COMPOUNDS AND METHODS OF USE THEREOF” (Wayne State University, priority 2016, published 2020)
Values after ≈ are worked out from the molar mass of the structure shown.

System: Methicillin-resistant S. aureus strains; S. aureus (K1902)
Assay: MIC and SIC in 96 well microplates (plasmid curing study)
Type: cell-based, Staphylococcus aureus
Experimental: Plasmid curing activity of HN18 and HN34 was evaluated. Methicillin-resistant S. aureus strains were sub-cultured on blood agar plates to obtain isolated colonies, incubated at 35° C. in a CO2 incubator. The fresh overnight bacterial inoculum was prepared by re-suspending a few isolated colonies in a tube containing 5 ml of saline. […] The sub-inhibitory concentration (SIC) is defined as the concentration before MIC (in a serial dilution method where antibiotic concentration decreases by half from each tube to the next one).
Plasmid curing activity of HN18 and HN34 was also evaluated in S. aureus (K1902) which is known to harbor a 5 kb plasmid with a chloramphenicol resistance gene. Along with the KSA reference strain, the plasmid curing activity was repeated for SA1 and SA2 strains which are MRSA (Table 4).

[1] = Table 4, KSA (S. aureus K1902), experiment I
[2] = Table 4, KSA (S. aureus K1902), experiment II
[3] = Table 4, isolate SA1, experiment I
[4] = Table 4, isolate SA1, experiment II
[5] = Table 4, isolate SA2, experiment I
[6] = Table 4, isolate SA2, experiment II

| Structure (SMILES) | SIC (Table 3, isolate SA1 (MRSA)) [µg/mL] | SIC (Table 3, isolate SA2 (MRSA)) [µg/mL] | SIC (Table 3, isolate SA3 (MRSA)) [µg/mL] | SIC (Table 3, isolate SA4 (MRSA)) [µg/mL] | SIC (Table 3, isolate SA5 (MRSA)) [µg/mL] | SIC (Table 3, isolate SA6 (MRSA)) [µg/mL] | SIC (Table 3, isolate SA7 (MRSA)) [µg/mL] | SIC (Table 3, isolate SA8 (MRSA)) [µg/mL] | MIC [1] [µg/mL] | SIC [1] [µg/mL] | MIC [2] [µg/mL] | SIC [2] [µg/mL] | MIC [3] [µg/mL] | SIC [3] [µg/mL] | MIC [4] [µg/mL] | SIC [4] [µg/mL] | SIC [5] [µg/mL] | MIC [6] [µg/mL] | SIC [6] [µg/mL] | MIC [5] [µg/mL] |
| --- | --- | --- | --- | --- | --- | --- | --- | --- | --- | --- | --- | --- | --- | --- | --- | --- | --- | --- | --- | --- |
| Fc1ccc(C(C2=CNC3C=CC=CC23)C2=C3C=CC=CC3NC2)cc1F (centres unmarked) [HN18, 3-((3,4-difluorophenyl)(2,7a-dihydro-1H-indol-3-yl)methyl)-3a,7a-dihydro-1H-indole] | 0.5 | 1.0 | 1.0 | 0.5 | 1.0 | 0.5 | 0.5 | 1.0 | 2 (≈ 5.52 µM) | 1 | 2 (≈ 5.52 µM) | 1 | 2 (≈ 5.52 µM) | 1 | 2 (≈ 5.52 µM) | 1 | 1 | 2 (≈ 5.52 µM) | 1 |  |
| Cc1[nH]c2ccccc2c1C(c1ccc(F)c(F)c1)c1c(C)[nH]c2ccccc12 [HN34] | 1 | 1 | 1 | 1 | 1 | 0.5 | 0.5 | 1 | 2 (≈ 5.18 µM) | 1 | 2 (≈ 5.18 µM) | 1 |  | 1 | 2 (≈ 5.18 µM) | 1 | 1 | 2 (≈ 5.18 µM) | 1 | 2 (≈ 5.18 µM) |
